ChEMBL document CHEMBL4229444, “Design, synthesis and docking study of 4-arylpiperazine carboxamides as monoamine neurotransmitters reuptake inhibitors” (Bioorg Med Chem, 2018)

How the values were obtained:
Assay type in all cases: cell-based
[1] = molecular target: Sodium-dependent serotonin transporter (Homo sapiens, UniProt P31645); assay: Inhibition of human SERT expressed in HEK293 cells assessed as reduction in [3H]5-HT uptake by micro beta scintillation counting analysis
[2] = molecular target: Sodium-dependent dopamine transporter (Homo sapiens, UniProt Q01959); assay: Inhibition of human DAT expressed in HEK293 cells assessed as reduction in [3H]-DA uptake by micro beta scintillation counting analysis
Chain of Sodium-dependent dopamine transporter (Q01959 whole entry): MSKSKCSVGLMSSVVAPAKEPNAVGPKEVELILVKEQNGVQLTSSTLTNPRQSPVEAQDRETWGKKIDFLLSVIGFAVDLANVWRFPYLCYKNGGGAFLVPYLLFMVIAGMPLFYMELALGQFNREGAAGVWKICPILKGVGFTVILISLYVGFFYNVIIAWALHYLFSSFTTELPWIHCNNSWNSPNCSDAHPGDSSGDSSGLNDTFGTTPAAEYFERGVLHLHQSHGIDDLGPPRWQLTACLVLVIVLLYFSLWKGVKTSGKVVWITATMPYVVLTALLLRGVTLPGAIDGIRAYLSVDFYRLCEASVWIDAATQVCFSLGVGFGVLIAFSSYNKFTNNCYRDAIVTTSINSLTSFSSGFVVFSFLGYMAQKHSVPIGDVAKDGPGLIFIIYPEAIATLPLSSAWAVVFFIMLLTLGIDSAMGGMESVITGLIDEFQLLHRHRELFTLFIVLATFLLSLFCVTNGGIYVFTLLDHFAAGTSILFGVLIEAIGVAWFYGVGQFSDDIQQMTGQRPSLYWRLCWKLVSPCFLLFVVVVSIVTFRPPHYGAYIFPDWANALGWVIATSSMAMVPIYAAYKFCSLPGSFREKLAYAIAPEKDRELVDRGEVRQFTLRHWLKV

[3] = molecular target: Sodium-dependent noradrenaline transporter (Homo sapiens, UniProt P23975); assay: Inhibition of human NET expressed in HEK293 cells assessed as reduction in [3H]-NE uptake by micro beta scintillation counting analysis
Chain of Sodium-dependent noradrenaline transporter (P23975 whole entry): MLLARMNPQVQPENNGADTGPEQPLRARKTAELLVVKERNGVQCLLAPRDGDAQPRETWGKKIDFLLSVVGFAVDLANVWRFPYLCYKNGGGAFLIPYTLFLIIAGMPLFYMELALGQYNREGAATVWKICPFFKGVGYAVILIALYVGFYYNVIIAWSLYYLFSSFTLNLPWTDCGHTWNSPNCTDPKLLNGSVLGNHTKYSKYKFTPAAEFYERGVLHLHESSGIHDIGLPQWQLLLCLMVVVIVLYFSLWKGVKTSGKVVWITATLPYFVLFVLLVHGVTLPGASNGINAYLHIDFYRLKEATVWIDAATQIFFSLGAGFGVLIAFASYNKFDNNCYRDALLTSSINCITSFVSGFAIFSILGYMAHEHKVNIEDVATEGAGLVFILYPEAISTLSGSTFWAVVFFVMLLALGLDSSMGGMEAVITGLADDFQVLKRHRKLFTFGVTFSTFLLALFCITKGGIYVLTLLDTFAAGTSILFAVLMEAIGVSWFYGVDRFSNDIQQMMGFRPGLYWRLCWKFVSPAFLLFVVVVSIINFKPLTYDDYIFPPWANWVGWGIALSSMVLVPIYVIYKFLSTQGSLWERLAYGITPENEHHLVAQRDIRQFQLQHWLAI

Chain of Sodium-dependent serotonin transporter (P31645 whole entry): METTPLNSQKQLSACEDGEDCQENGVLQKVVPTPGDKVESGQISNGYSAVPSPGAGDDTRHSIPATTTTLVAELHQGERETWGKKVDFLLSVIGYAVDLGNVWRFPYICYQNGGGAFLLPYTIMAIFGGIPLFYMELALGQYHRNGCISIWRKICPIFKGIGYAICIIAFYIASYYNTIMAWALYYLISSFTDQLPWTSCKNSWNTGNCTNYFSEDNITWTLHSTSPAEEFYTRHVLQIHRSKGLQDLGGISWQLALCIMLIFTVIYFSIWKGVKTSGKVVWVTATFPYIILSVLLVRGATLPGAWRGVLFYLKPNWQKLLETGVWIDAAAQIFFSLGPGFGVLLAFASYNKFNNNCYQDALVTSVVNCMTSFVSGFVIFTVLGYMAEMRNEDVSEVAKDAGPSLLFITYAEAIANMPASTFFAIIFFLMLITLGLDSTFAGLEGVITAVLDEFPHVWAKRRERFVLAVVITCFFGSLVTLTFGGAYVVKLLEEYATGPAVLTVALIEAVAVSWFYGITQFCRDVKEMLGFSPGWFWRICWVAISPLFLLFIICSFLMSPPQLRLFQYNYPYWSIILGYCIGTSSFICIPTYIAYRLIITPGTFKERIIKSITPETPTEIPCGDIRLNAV

| IC50 [1] [µM] | IC50 [3] [µM] | SMILES | IC50 [2] [µM] |
| --- | --- | --- | --- |
| 0.4 | 3.66 | O=C(NCCCN1CCN(c2cccc(Cl)c2Cl)CC1)c1cc2ccccc2s1 | – |
| 0.46 | 2.69 | Cc1ccc(N2CCN(CCCNC(=O)c3ccc4ccccc4c3)CC2)cc1 | – |
| 0.23 | > 10 | Cc1ccc(N2CCN(CCCNC(=O)c3ccc4ccccc4n3)CC2)cc1 | – |
| 6.94 | > 10 | O=C(NCCCN1CCN(c2ccccn2)CC1)c1ccc2ccccc2n1 | > 10 |
| 0.28 | > 10 | O=C(NCCCN1CCN(c2ccc(Cl)cc2)CC1)c1ccc2ccccc2c1 | – |
| 1.32 | > 10 | O=C(NCCCN1CCN(c2ccc(Cl)cc2)CC1)c1ccc2ccccc2n1 | – |
| 0.55 | 1.34 | O=C(NCCCN1CCN(c2ccc(Cl)cc2)CC1)c1cc2ccccc2s1 | – |
| 0.74 | 0.26 | O=C(NCCCN1CCN(c2cccc(Cl)c2Cl)CC1)c1ccc2ccccc2c1 | > 10 |
| 4.27 | > 10 | O=C(NCCCN1CCN(c2cccc(Cl)c2Cl)CC1)c1cccc2ccccc12 | > 10 |
| 6.85 | > 10 | O=C(NCCCN1CCN(c2ccc(Cl)cc2Cl)CC1)c1ccc2ccccc2n1 | – |
| 1.01 | 3.15 | O=C(NCCCN1CCN(c2cccc(Cl)c2Cl)CC1)c1ccc(-c2ccccc2)cc1 | – |
| 4.46 | 4.96 | COc1ccccc1N1CCN(CCCNC(=O)c2ccc(-c3ccccc3)cc2)CC1 | – |
| 9.64 | > 10 | O=C(NCCCN1CCN(c2ccccn2)CC1)c1ccc2ccccc2c1 | > 10 |
| 0.23 | 6.07 | COc1ccc(N2CCN(CCCNC(=O)c3ccc4ccccc4n3)CC2)cc1 | – |
| 1.17 | 2.55 | O=C(NCCCN1CCN(c2cccc(Cl)c2Cl)CC1)c1ccc2ccccc2n1 | > 10 |

The remaining lines, values behind:

| SMILES | IC50 [1] [µM] | IC50 [3] [µM] | IC50 [2] [µM] |
| --- | --- | --- | --- |
| O=C(NCCCN1CCN(c2ncccn2)CC1)c1cc(Cl)cc(Cl)c1 | > 10 | > 10 | > 10 |
| O=C(NCCCN1CCN(c2ncccn2)CC1)c1ccc2ccccc2n1 | > 10 | > 10 | > 10 |
| O=C(NCCCN1CCN(c2ccccn2)CC1)c1cccc2ccccc12 | > 10 | > 10 | > 10 |
| O=C(NCCCN1CCN(c2ncccn2)CC1)c1cccc2ccccc12 | > 10 | > 10 | > 10 |
| O=C(NCCCN1CCN(c2ccc(C(F)(F)F)cc2)CC1)c1cc2ccccc2o1 | 0.741 | > 10 | – |
| O=C(NCCCN1CCN(c2cccc(Cl)c2Cl)CC1)c1cc(Cl)cc(Cl)c1 | > 10 | > 10 | > 10 |
| O=C(NCCCN1CCN(c2ccc(Cl)c(Cl)c2)CC1)c1ccc2ccccc2n1 | 0.273 | > 10 | – |
| O=C(NCCCN1CCN(c2ncccn2)CC1)c1ccc2ccccc2c1 | > 10 | > 10 | > 10 |
| COc1ccccc1N1CCN(CCCNC(=O)c2ccc3ccccc3n2)CC1 | > 10 | > 10 | – |
| O=C(NCCCN1CCN(c2ccccn2)CC1)c1cc(Cl)cc(Cl)c1 | > 10 | > 10 | > 10 |
| O=C(NCCCN1CCN(c2cccc(Cl)c2Cl)CC1)c1cc2ccccc2o1 | > 10 | > 10 | – |
| O=C(NCCCN1CCN(c2ccccc2)CC1)c1ccc2ccccc2n1 | > 10 | > 10 | – |
